Assay results taken from patent US20070293443A1, “Composition for Accelerating Calcium Absorption” (Good Shusei Co. Ltd, priority 2004, published 2007).
Values belong to the compound of their own block, whether it stands above or below them.

Assays:
[1] = system: dietary calcium absorption; test: Dietary calcium absorption accelerating effect, blood calcium level after oral calcium carbonate with test substance (Example 1); type: in vivo; details: male ICR mice, oral 5 mmol/kg calcium carbonate alone or with test substance (1.25-10.0 mmol/kg), up to 4 hours after administration
Description: For the experiment, 11-weeks old male ICR mice were used after overnight fasting. During the test period, the mice were given deionized water only. […] The doses of L-arabonic acid administered in combination were 1.25 mmol/kg (Group II), 2.5 mmol/kg (Group III), 5.0 mmol/kg (Group IV), and 10.0 mmol/kg (Group V), and the doses of D-gluconic acid were 2.5 mmol/kg (Group VI), 5.0 mmol/kg (Group VII), and 10.0 mmol/kg (Group VIII). […] The blood calcium level was quantified by a chelate colorimetric method (ortho-cresolphthalein complexone (OCPC) method). The obtained data were analyzed by a paired t-test, and a risk ratio of 5% or less was considered as significant difference.

[2] = Neutralization curve on dropwise addition of 0.05 N sodium hydroxide, buffering capacity (Example 9); type: physicochemical; details: 50 mL of 0.4% aqueous solution, 0.05 N sodium hydroxide added
Procedure: A sodium hydroxide solution at a concentration of 0.05 N was added to 50 mL of a 0.4% aqueous solution of the preparation of Example 9, and the changes in pH were obtained as shown in FIG. 3. […] In addition, 0.2% aqueous solutions of the preparation of Example 9, Comparative Example 1 and Comparative Example 2 were tasted. The 0.2% aqueous solution of the preparation of […] (pH 4.95), having the lowest pH among three, had the closest taste to water, no flavor, and thus it was indistinguishable from water. The preparations of Comparative Example 1 (pH 5.60) and Comparative Example 2 (pH 5.02) had clearly bitter tastes, even in small amount.
In addition, a sodium hydroxide solution at a concentration of 0.05 N was added to 50 mL of a 0.4% aqueous solution of L-arabono-γ-lactone and 50 mL of a 0.4% aqueous solution of D-glucono-δ-lactone, respectively, and the changes in pH were obtained as shown in FIG. 2.

[3] = system: experimental osteoporosis induced by combination of ovary excision and calcium-deficient diet; test: Experimental osteoporosis due to combination of ovary excision and calcium-deficient diet (Example 8); type: in vivo, mice; details: for absorption rate of calcium in the digestive tract, fourth week / absorption rate of calcium in the digestive tract, second week: ovary-excised mice on calcium-deficient diet; for Femur Ash content / Femur Ca content / Femur P content / Femur Weight / Tibia Ash content / Tibia Ca content / Tibia P content / Tibia Weight: 4 weeks
Procedure: (§1) Six-week old female ICR mice were divided into five groups (Groups I to V, 10 animals in each group), and fed calcium-deficient feed (calcium carbonate-free AIN 93M, Oriental Yeast Co., Ltd.) for 4 weeks to induce osteoporosis condition. Calcium L-arabonate was dissolved in water and orally administered daily in a dose of 1.25 mmol/kg (Group II) or 2.5 mmol/kg (Group III). The control group for pathological condition (Group I) was administered with water in the same manner. As a comparative group, a group administered with calcium D-gluconate (dose 2.5 mmol/kg (Group IV)) was provided. A normal control group (Group V) was separately provided and was given the normal feed (AIN 93M, Oriental Yeast Co., Ltd.). After administering the test substance on the second week and fourth week of initiation of the test, the animals were transferred to a metabolic cage, and feces were collected for 24 hours. The amount of calcium and phosphorus excreted in the feces were measured, and the absorption rates of ingested calcium and phosphorous in the digestive tract were determined. After completion of the test period, the animals of the respective groups were sacrificed to remove both femurs and tibiae. The femurs and tibiae were removed muscles etc., then immersed in 70% ethanol overnight, and dried at 60° C. for 24 hours to be used as samples for analysis. The measurement items were dry weight, ash content, calcium content, and phosphorus content. The ash content was measured by an ashing method at 550° C. for 18 hours, the calcium content was measured by an OCPC method (Calcium C-Test Wako, Wako Pure Chemical Industries, Ltd.), and the phosphorus content was measured by a p-methylaminophenol reduction method (Phospho C-Test Wako, Wako Pure Chemical Industries, Ltd.). The obtained data were analyzed by ANOVA and the Dunnett's method, and a risk ratio of 5% or less was considered as significant difference.
Six-weeks old female ICR mice excised their ovaries were divided into 5 groups (Groups I to V, 10 animals in each group), and fed calcium-deficient feed (calcium carbonate-free AIN 93M, Oriental Yeast Co., Ltd.) for 4 weeks to induce osteoporosis condition. Calcium L-arabonate was dissolved in water, and orally administered daily in a dose of 1.25 mmol/kg (Group II) or 2.5 mmol/kg (Group III). The control group for pathological condition (Group I) was administered with water in the same manner. As a comparative group, a group administered with calcium D-gluconate (dose 2.5 mmol/kg (Group IV)) was provided. Also, a group excised ovaries but given with normal feed (AIN 93M, Oriental Yeast Co., Ltd.) (Group V) was separately provided. The measurement of the absorption rate of calcium in the digestive tract, and the analysis of femur and tibia were performed in the same manner as in Example 7.

[4] = system: experimental osteoporosis induced by calcium-deficient diet; test: Experimental osteoporosis induced by calcium-deficient diet (Example 7); type: in vivo, mice; details: for absorption rate of calcium in the digestive tract, fourth week / absorption rate of calcium in the digestive tract, second week: calcium-deficient diet mice; for Femur Ash content / Femur Ca content / Femur P content / Femur Weight / Tibia Ash content / Tibia Ca content / Tibia P content / Tibia Weight: 4 weeks
Procedure: as §1

[5] = Kinetics of calcium L-arabonate in the digestive tract of rat (Example 6); type: in vivo
Procedure: For the experiment, 9 to 12-weeks old male Wistar rats were used after overnight fasting. After orally administering 2.5 mmol/kg of calcium L-arabonate, the animals were entered into a metabolic cage, and were sacrificed after 2 hours, after 6 hours, and after 24 hours, to remove the digestive tracts. The contents in each site of the digestive tract were recovered, respectively, and the amount of unaltered L-arabonic acid was quantified by the HPLC method. During the test period, the animals were given deionized water only.

mice = test: Single oral administration safety test, LD50; type: in vivo
Description: As a result of a single oral test using mice, it was confirmed that the LD50 value of L-arabonic acid was about 10 g/kg, and thus L-arabonic acid was a material having high safety.
While it was discovered in Example 5 that the calcium moiety of calcium L-arabonate used in the invention was extremely readily-absorbable, it was shown in Example 6 that the L-arabonic acid moiety was extremely poorly absorbed in the digestive tract.

[6] = Blood calcium level after administration of calcium L-arabonate (Example 5); type: in vivo; details: male ICR mice, oral calcium L-arabonate 1.25, 2.5, 5.0 mmol/kg or calcium carbonate 5 mmol/kg, up to 4 hours
Procedure: For the experiment, 11-weeks old male ICR mice were used after overnight fasting. During the test period, the mice were given deionized water only. The mice were divided into four groups (Groups I to IV, 5 animals in each group), and the test substance was orally administered as a solution in deionized water. […] The blood calcium level was quantified by a chelating calorimetric method (ortho-cresolphthalein complexone (OCPC) method). The obtained data were analyzed by a paired t-test, and a risk ratio of 5% or less was considered as significant difference.

[7] = 1.25 and 2.5 mmol/kg, versus pathological control and calcium D-gluconate group

buffering capacity [2]: milder than that of D-glucono-δ-lactone
SMILES: O=C1O[C@@H](CO)[C@H](O)[C@H]1O [L-arabono-γ-lactone]
change in blood calcium level [1]: same effects as those of L-arabonic acid

SMILES: O=C([O-])[C@@H](O)[C@H](O)[C@H](O)CO.O=C([O-])[C@@H](O)[C@H](O)[C@H](O)CO.[Ca+2] [calcium L-arabonate]
amelioration of weight, ash, calcium and phosphorus content of femur and tibia [3, 7]: ameliorated in all of the indices in dose-dependent manner | absorption rate of calcium in the digestive tract, fourth week ([3]; dose 1.25 mmol/kg oral daily): 81.8% | absorption rate of calcium in the digestive tract, second week ([3]; dose 1.25 mmol/kg oral daily): 85.7% | absorption rate of calcium in the digestive tract, fourth week ([3]; dose 2.5 mmol/kg oral daily): 57.7% | absorption rate of calcium in the digestive tract, second week ([3]; dose 2.5 mmol/kg oral daily): 74.4% | Femur Ash content ([3]; dose 1.25 mmol/kg oral daily): 25 ± 0.4 mg | Femur Ca content ([3]; dose 1.25 mmol/kg oral daily): 8.8 ± 0.18 mg | Femur P content ([3]; dose 1.25 mmol/kg oral daily): 4.7 ± 0.07 mg | Femur Weight ([3]; dose 1.25 mmol/kg oral daily): 45 ± 0.9 mg | Femur Ash content ([3]; dose 2.5 mmol/kg oral daily): 28 ± 0.8 mg | Femur Ca content ([3]; dose 2.5 mmol/kg oral daily): 10.2 ± 0.24 mg | Femur P content ([3]; dose 2.5 mmol/kg oral daily): 5.3 ± 0.11 mg | Femur Weight ([3]; dose 2.5 mmol/kg oral daily): 50 ± 0.9 mg | Tibia Ash content ([3]; dose 1.25 mmol/kg oral daily): 22 ± 0.3 mg | Tibia Ca content ([3]; dose 1.25 mmol/kg oral daily): 8.2 ± 0.15 mg | Tibia P content ([3]; dose 1.25 mmol/kg oral daily): 4.2 ± 0.05 mg | Tibia Weight ([3]; dose 1.25 mmol/kg oral daily): 42 ± 0.8 mg | Tibia Ash content ([3]; dose 2.5 mmol/kg oral daily): 25 ± 0.5 mg | Tibia Ca content ([3]; dose 2.5 mmol/kg oral daily): 9.3 ± 0.23 mg | Tibia P content ([3]; dose 2.5 mmol/kg oral daily): 4.7 ± 0.11 mg | Tibia Weight ([3]; dose 2.5 mmol/kg oral daily): 46 ± 1.0 mg | absorption rates of phosphorus in the digestive tract ([4]; 1.25 and 2.5 mmol/kg, compared with calcium D-gluconate group): tendency for higher absorption rates of phosphorus compared with the comparative group | amelioration of weight, ash, calcium and phosphorus content of femur and tibia [4, 7]: ameliorated in all of the above indices in dose-dependent manner | absorption rate of calcium in the digestive tract, fourth week ([4]; dose 1.25 mmol/kg oral daily): 99.3% | absorption rate of calcium in the digestive tract, second week ([4]; dose 1.25 mmol/kg oral daily): 93.1% | absorption rate of calcium in the digestive tract, fourth week ([4]; dose 2.5 mmol/kg oral daily): 80.1% | absorption rate of calcium in the digestive tract, second week ([4]; dose 2.5 mmol/kg oral daily): 87.9% | Femur Ash content ([4]; dose 1.25 mmol/kg oral daily): 24 ± 0.7 mg | Femur Ca content ([4]; dose 1.25 mmol/kg oral daily): 8.8 ± 0.22 mg | Femur P content ([4]; dose 1.25 mmol/kg oral daily): 4.5 ± 0.09 mg | Femur Weight ([4]; dose 1.25 mmol/kg oral daily): 44 ± 1.0 mg | Femur Ash content ([4]; dose 2.5 mmol/kg oral daily): 27 ± 0.5 mg | Femur Ca content ([4]; dose 2.5 mmol/kg oral daily): 9.5 ± 0.13 mg | Femur P content ([4]; dose 2.5 mmol/kg oral daily): 5.1 ± 0.05 mg | Femur Weight ([4]; dose 2.5 mmol/kg oral daily): 49 ± 1.1 mg | Tibia Ash content ([4]; dose 1.25 mmol/kg oral daily): 23 ± 0.8 mg | Tibia Ca content ([4]; dose 1.25 mmol/kg oral daily): 8.1 ± 0.28 mg | Tibia P content ([4]; dose 1.25 mmol/kg oral daily): 4.2 ± 0.14 mg | Tibia Weight ([4]; dose 1.25 mmol/kg oral daily): 43 ± 1.6 mg | Tibia Ash content ([4]; dose 2.5 mmol/kg oral daily): 24 ± 0.5 mg | Tibia Ca content ([4]; dose 2.5 mmol/kg oral daily): 9.1 ± 0.22 mg | Tibia P content ([4]; dose 2.5 mmol/kg oral daily): 4.6 ± 0.05 mg | Tibia Weight ([4]; dose 2.5 mmol/kg oral daily): 46 ± 1.2 mg | share of the total amount of administration remained in the cecum and the colon ([5]; after 24 hours, oral 2.5 mmol/kg calcium L-arabonate): About 23% | absorption of the arabonic acid moiety in the small intestine ([5]; after oral administration of the calcium salt): hardly absorbed in the small intestine | Residual ratio of L-arabonic acid after administration, Cecum, After 2 hrs ([5]; oral 2.5 mmol/kg calcium L-arabonate, cecum, 2 hrs): 34.4 ± 5.81% | Residual ratio of L-arabonic acid after administration, Cecum, After 6 hrs ([5]; oral 2.5 mmol/kg calcium L-arabonate, cecum, 6 hrs): 57.8 ± 2.27% | Residual ratio of L-arabonic acid after administration, Cecum, After 24 hrs ([5]; oral 2.5 mmol/kg calcium L-arabonate, cecum, 24 hrs): 19.0 ± 15.67% | Residual ratio of L-arabonic acid after administration, Colon, After 2 hrs ([5]; oral 2.5 mmol/kg calcium L-arabonate, colon, 2 hrs): 1.9 ± 0.76% | Residual ratio of L-arabonic acid after administration, Colon, After 6 hrs ([5]; oral 2.5 mmol/kg calcium L-arabonate, colon, 6 hrs): 3.9 ± 1.30% | Residual ratio of L-arabonic acid after administration, Colon, After 24 hrs ([5]; oral 2.5 mmol/kg calcium L-arabonate, colon, 24 hrs): 2.5 ± 0.95% | Residual ratio of L-arabonic acid after administration, Small intestine, After 2 hrs ([5]; oral 2.5 mmol/kg calcium L-arabonate, small intestine, 2 hrs): 22.6 ± 4.85% | Residual ratio of L-arabonic acid after administration, Small intestine, After 6 hrs ([5]; oral 2.5 mmol/kg calcium L-arabonate, small intestine, 6 hrs): 2.2 ± 1.08% | Residual ratio of L-arabonic acid after administration, Small intestine, After 24 hrs ([5]; oral 2.5 mmol/kg calcium L-arabonate, small intestine, 24 hrs): 0.2 ± 0.08% | Residual ratio of L-arabonic acid after administration, Stomach, After 2 hrs ([5]; oral 2.5 mmol/kg calcium L-arabonate, stomach, 2 hrs): 3.30 ± 1.34% | Residual ratio of L-arabonic acid after administration, Stomach, After 6 hrs ([5]; oral 2.5 mmol/kg calcium L-arabonate, stomach, 6 hrs): 0.1 ± 0.06% | Residual ratio of L-arabonic acid after administration, Stomach, After 24 hrs ([5]; oral 2.5 mmol/kg calcium L-arabonate, stomach, 24 hrs): 0% | LD50 (mice): ≥ 7400 mg/kg | change in blood calcium level [6]: dose-dependent increases in the blood calcium level
